Assays:
[1] = tested on: R0 conformation of the human PTHR1; conditions: cited from earlier work
CD1 mice = conditions: subcutaneous injection; cited from earlier work
hPTHR1 = target: T1, hPTHR1 (Homo sapiens, UniProt Q03431); assay: cAMP induction; type: cell-based; conditions: Table 1; ratio of cAMP EC50 values, hPTHR1, GP2.3 cells
T1 sequence (Q03431 27-593): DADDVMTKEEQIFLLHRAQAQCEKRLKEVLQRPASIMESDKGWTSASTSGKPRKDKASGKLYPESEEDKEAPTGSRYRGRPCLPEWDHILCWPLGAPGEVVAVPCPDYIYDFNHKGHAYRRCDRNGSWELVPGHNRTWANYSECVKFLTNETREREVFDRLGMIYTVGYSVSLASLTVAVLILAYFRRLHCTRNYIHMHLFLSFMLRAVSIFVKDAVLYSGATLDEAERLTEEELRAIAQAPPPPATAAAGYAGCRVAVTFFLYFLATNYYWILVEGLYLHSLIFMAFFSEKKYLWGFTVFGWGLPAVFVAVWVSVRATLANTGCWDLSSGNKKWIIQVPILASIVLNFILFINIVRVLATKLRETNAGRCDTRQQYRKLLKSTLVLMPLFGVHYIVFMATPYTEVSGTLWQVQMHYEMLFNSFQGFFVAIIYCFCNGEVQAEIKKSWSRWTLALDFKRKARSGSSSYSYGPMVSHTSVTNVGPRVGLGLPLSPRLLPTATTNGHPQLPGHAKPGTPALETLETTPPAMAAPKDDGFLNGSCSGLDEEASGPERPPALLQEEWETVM

## M-PTH(1-34) [Peptide 27]
[1]
  binding to the R0 state of PTHR1, rank in words, earlier studies: binds even more tightly than does 1
CD1 mice
  duration of calcemic effect in mice, earlier studies: long-lasting calcemic effect
hPTHR1
  Derivative EC50/PTH(1-34) EC50: 4.2

Reference: PMC6016400 (Journal of medicinal chemistry, 2017)
